Laboratory results from patent US11896592B2, “Certain triazolopyridines and triazolopyrazines, compositions thereof and methods of use therefor” (Hutchison Medipharma Limited, priority 2009, dated 2024).

Molecular target: T1, Recombinant human Met (c-Met) (Homo sapiens, UniProt P08581)
T1 construct: purchased Invitrogen PV3143
Assay: Inhibition of c-Met kinase activity using Transcreener FP assay
Format: biochemical
Conditions: IC50, inhibition of c-Met kinase activity, Poly E4Y substrate, 28° C. 45 min
Experimental: Compound dilution: dilute test articles to 5 folds of the testing concentration using 20% DMSO.
The mixture is kept on ice until use;
Prepare ATP standard curve stock as following:
3. Enzymatic reaction: in 96-well reaction plate
Add 5 μL of test article or 5 μL of 20% DMSO or 5 μL of 500 mM EDTA;
Add 10 μL of Enzyme/Substrate stock;
Add 10 μL of ATP Diluent to begin the enzyme reaction and mix on plate shaker;
Add 5 μL of 20% DMSO, 10 μL of assay buffer and 10 μL of ATP standard curve stock into standard curve wells;
Gently shake at 28° C. for 45 min.
4. Stop reaction and detect ADP
Prepare Detection Mix: According to the procedures described in the Assay kit, Alexa633 tracer, ADP antibody and stop & detect buffer were added into H2O and mixed thoroughly. Prepare Tracer Only control: According to the procedures described in the Assay kit, ADP Alexa633 tracer and stop & detect buffer were added to H2O and mixed throughly.
Prepare No Tracer control: According to the procedures described in the Assay kit, the stop & detect buffer was diluted with H2O;
Add 25 μL of detection mix, Tracer Only control and No Tracer control into corresponding wells, respectively;
The reaction plate was gently shaken at 28° C. for 1 h;
Florescence polarization (FP) was measured on TECAN F500. Excitation wavelength: 610 nm, Emission wavelength: 670 nm.
Compound well [ADP] represents the ADP concentration of the compound well. Positive control well [ADP] represents the ADP concentration of the 20% DMSO well. Conversion of mP value to ADP concentration is based on the formula which is determined by standard curve.
IC50: calculated using XL-Fit 2.0 software.

T1 sequence (P08581 956-1390 limits assumed): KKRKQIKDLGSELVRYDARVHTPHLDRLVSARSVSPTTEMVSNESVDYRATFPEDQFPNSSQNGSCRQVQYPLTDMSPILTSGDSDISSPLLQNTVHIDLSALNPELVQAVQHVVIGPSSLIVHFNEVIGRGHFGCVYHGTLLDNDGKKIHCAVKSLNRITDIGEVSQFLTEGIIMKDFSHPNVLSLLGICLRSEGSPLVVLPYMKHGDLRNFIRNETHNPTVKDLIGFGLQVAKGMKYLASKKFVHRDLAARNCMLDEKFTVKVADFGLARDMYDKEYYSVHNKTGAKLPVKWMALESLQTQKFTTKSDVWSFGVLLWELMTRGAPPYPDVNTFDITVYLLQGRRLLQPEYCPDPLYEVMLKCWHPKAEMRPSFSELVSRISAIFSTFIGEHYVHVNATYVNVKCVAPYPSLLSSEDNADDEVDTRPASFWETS

IC50 [nM] | Structure (SMILES)
1 to 100 | CC(c1ccc2nccn2c1)n1nnc2ncc(-c3cnn(C)c3)nc21 (racemic) [Compound 331]
1 to 100 | C[C@@H](c1ccc2nccn2c1)n1nnc2ncc(-c3cnn(C)c3)nc21 [Compound 270]

Same assay, conditions: Poly E4Y substrate, 28° C. 45 min, read-out: IC50, inhibition of c-Met kinase activity

IC50 [nM] | Structure (SMILES)
1 to 100 | c1cnc2ccc(Cn3nnc4ncc(Nc5ccsc5)nc43)cc2c1 [Compound 161]
1 to 100 | Cc1cc(Nc2cnc3nnn(Cc4ccc5ncccc5c4)c3n2)n[nH]1 [Compound 191]
1 to 100 | COCc1cnc2ccc([C@H](C)n3nnc4ncc(-c5cnn(C)c5)nc43)cn12 [Compound 324]
100 to 1000 | FC(F)(F)Cn1cc(-c2ccc3nnn(Cc4ccc5ncccc5n4)c3n2)cn1 [Compound 292]
1 to 100 | COCc1cnc2ccc(Cn3nnc4ncc(-c5cnn(CCO)c5)nc43)cn12 [Compound 309]
100 to 1000 | c1ccc(Oc2cnc3nnn(Cc4ccc5ncccc5c4)c3n2)nc1 [Compound 257]
1 to 100 | Fc1ccc(-c2cnc3nnn(Cc4ccn5nccc5c4)c3n2)cc1 [Compound 303]
1 to 100 | Cc1cccc(Nc2cnc3nnn(Cc4ccc5ncccc5c4)c3n2)n1 [Compound 157]
1 to 100 | COCCNc1cncc(Nc2cnc3nnn(Cc4ccc5ncccc5c4)c3n2)c1 [Compound 203]
1 to 100 | Cc1cc(Nc2ccc3nnn(Cc4ccc5ncccc5c4)c3n2)ccn1 [Compound 235]
1 to 100 | Clc1cncc(Oc2cnc3nnn(Cc4ccc5ncccc5c4)c3n2)c1 [Compound 254]
1 to 100 | COc1cc(Nc2cnc3nnn(Cc4ccc5ncccc5c4)c3n2)ccn1 [Compound 195]
1 to 100 | Cn1cc(-c2cnc3nnn(Cc4ccc5ncc(Cl)n5c4)c3n2)cn1 [Compound 300]
100 to 1000 | Cc1cccc(Nc2ccc3nnn(Cc4ccc5ncccc5c4)c3n2)n1 [Compound 181]
100 to 1000 | CC(c1cc2[nH]ncc2s1)n1nnc2ncc(-c3cnn(C)c3)nc21 (stereo not shown) [Compound 299]
100 to 1000 | COCCNc1ccnc(Nc2cnc3nnn(Cc4ccc5ncccc5c4)c3n2)c1 [Compound 204]
100 to 1000 | O[C@@H]1CCC[C@H]1Nc1ccnc(Nc2cnc3nnn(Cc4ccc5ncccc5c4)c3n2)c1 [Compound 206]
1 to 100 | OCC1CCN(c2ccc3nnn(Cc4ccc5ncccc5c4)c3n2)CC1 [Compound 245]
1 to 100 | COc1ccncc1Nc1cnc2nnn(Cc3ccc4ncccc4c3)c2n1 [Compound 210]
100 to 1000 | OCCNc1ccnc(Nc2cnc3nnn(Cc4ccc5ncccc5c4)c3n2)c1 [Compound 205]
1 to 100 | c1cnc2ccc(Cn3nnc4ncc(Sc5ccncc5)nc43)cc2c1 [Compound 248]
1 to 100 | Cn1cc(-c2cnc3nnn(Cc4ccc5ncc(CO)n5c4)c3n2)cn1 [Compound 272]
100 to 1000 | Clc1cccc(Nc2ccc3nnn(Cc4cc5cnccc5s4)c3n2)c1 [Compound 170]
1 to 100 | Brc1cnc2nnn(Cc3cc4[nH]ncc4s3)c2n1 [Compound 295]
1 to 100 | COc1ccnc(Nc2cnc3nnn(Cc4ccc5ncccc5c4)c3n2)c1 [Compound 183]
1 to 100 | CC(C)OCc1cnc2ccc(Cn3nnc4ncc(-c5cnn(C)c5)nc43)cn12 [Compound 323]
1 to 100 | COCCOc1cccc(Nc2cnc3nnn(Cc4ccc5ncccc5c4)c3n2)n1 [Compound 227]
1 to 100 | OCCn1cc(-c2cnc3nnn(Cc4ccc5ncc(CO)n5c4)c3n2)cn1 [Compound 306]
1 to 100 | CS(=O)(=O)n1cc(-c2ccc3nnn(Cc4ccc5ncccc5c4)c3n2)cn1 [Compound 150]
1 to 100 | Cc1cc(Nc2cnc3nnn(Cc4ccc5ncccc5c4)c3n2)ccn1 [Compound 163]

The next lines start with the molecule.

Structure (SMILES) | IC50 [nM]
CNC(=O)c1ccc(-c2ccc3nnn(Cc4ccc5ncccc5c4)c3n2)cn1 [Compound 83] | 1 to 100
CCn1cc(-c2cnc3nnn(Cc4cc5c(cnn5CC)s4)c3n2)cn1 [Compound 37] | 100 to 1000
COCCNc1cc(-c2ccc3nnn(Cc4ccc5ncccc5c4)c3n2)ccn1 [Compound 110] | 100 to 1000
COCCn1cc(-c2cnc3nnn(Cc4ccc5ncnn5c4)c3n2)cn1 [Compound 53] | 100 to 1000
Cn1cnc(-c2ccc3nnn(Cc4ccc5ncccc5c4)c3n2)c1 [Compound 108] | 100 to 1000
c1cnc2ccc(Cn3nnc4ccc(-c5cnn(C6CCNCC6)c5)nc43)cc2c1 [Compound 94] | 100 to 1000
COCCn1cc(-c2ccc3nnn(Cc4ccc5ncccc5c4)c3n2)cn1 [Compound 93] | 100 to 1000
Cn1cc(-c2ccc3nnn(Cc4cc5[nH]ncc5s4)c3n2)cn1 [Compound 132] | 1 to 100
CN(C)Cc1ccc(-c2ccc3nnn(Cc4ccc5ncccc5c4)c3n2)s1 [Compound 105] | 100 to 1000
OCCn1cc(-c2ccc3nnn(Cc4ccc5nccn5c4)c3n2)cn1 [Compound 134] | 1 to 100
c1cnc2ccc(Cn3nnc4ccc(-c5ccc(N6CCOCC6)nc5)nc43)cc2c1 [Compound 63] | 1 to 100
c1n[nH]cc1-c1cnc2nnn(Cc3cc4[nH]ncc4s3)c2n1 [Compound 44] | 1 to 100
C[C@@H](c1ccc2ncccc2c1)n1nnc2ccc(-c3cnn(CCO)c3)nc21 [Compound 77] | 1 to 100
CC(C)n1cc(-c2ccc3nnn(Cc4ccc5nccn5c4)c3n2)cn1 [Compound 136] | 1 to 100
COCCOc1cc(-c2ccc3nnn(Cc4ccc5ncccc5c4)c3n2)ccn1 [Compound 107] | 100 to 1000
FC(F)(F)Cn1cc(-c2ccc3nnn(Cc4ccc5ncnn5c4)c3n2)cn1 [Compound 121] | 100 to 1000

Structure (SMILES) | IC50 [nM]
C[C@H](c1ccc2ncccc2c1)n1nnc2ccc(-c3cnn(CCO)c3)nc21 [Compound 78] | 100 to 1000
c1csc(-c2cnc3nnn(Cc4cc5cccnc5s4)c3n2)c1 [Compound 6] | 100 to 1000
COCCOc1ccc(-c2ccc3nnn(Cc4ccc5ncccc5c4)c3n2)cc1 [Compound 97] | 1 to 100
CCn1cc(-c2ccc3nnn(Cc4ccc5ncccc5c4)c3n2)cn1 [Compound 95] | 1 to 100
OCCn1cc(-c2ccc3nnn(Cc4n[nH]c5ncccc45)c3n2)cn1 [Compound 138] | 100 to 1000
Cn1cc(-c2ccc3nnn(Cc4cc5cnccc5s4)c3n2)cn1 [Compound 71] | 100 to 1000
CCOC(=O)Cn1cc(-c2ccc3nnn(Cc4ccc5ncccc5c4)c3n2)cn1 [Compound 65] | 1 to 100
OCCn1cc(-c2ccc3nnn(Cc4ccc5ncccc5c4)c3n2)cn1 [Compound 61] | 1 to 100
CC(=O)OCCn1cc(-c2ccc3nnn(Cc4ccc5ncccc5c4)c3n2)cn1 [Compound 98] | 100 to 1000
CCCn1cc(-c2ccc3nnn(Cc4ccc5ncccc5c4)c3n2)cn1 [Compound 146] | 1 to 100
c1cn2cc(Cn3nnc4ccc(-c5cnn(C6CCOCC6)c5)nc43)ccc2n1 [Compound 143] | 100 to 1000
c1cnc2ccc(Cn3nnc4ccc(-c5cnn(C6CCOCC6)c5)nc43)cc2c1 [Compound 118] | 100 to 1000
CC(O)Cn1cc(-c2ccc3nnn(Cc4ccc5ncccc5c4)c3n2)cn1 (stereo not shown) [Compound 100] | 100 to 1000
c1cc2sc(Cn3nnc4ncc(-c5cnn(C6CCNCC6)c5)nc43)cc2cn1 [Compound 18] | 100 to 1000
Nc1ccc(-c2ccc3nnn(Cc4ccc5ncccc5c4)c3n2)cn1 [Compound 62] | 1 to 100
FC(F)(F)Cn1cc(-c2cnc3nnn(Cc4ccc5ncnn5c4)c3n2)cn1 [Compound 52] | 1 to 100
